19 compounds from patent US12692261B2, “Substituted heterocyclic compounds and therapeutic uses thereof” (Bayer Aktiengesellschaft, priority 2020, dated 2026) can be followed below.

The target in one experiment is T1, full-length human CSNK1D (Homo sapiens, UniProt P48730).
T1 construct: N-terminal Glutathion-S-Transferase (GST) and full-length human CSNK1D; purchased Life Technologies PV3665; host or cells: baculovirus infected insect cells
Put plainly: CSNK1D Assay (ADP-Glo, 1 μM ATP). It is filed as biochemical. To be noted: Table 3, read-out: CSNK1D IC50 [mol/l] (median). How it is done: CSNK1D-inhibitory activity of compounds of the present invention in presence of 1 μM adenosine-tri-phosphate (ATP) was quantified employing the CSNK1 D assay as described in the following paragraphs. In essence, the enzyme activity is measured by quantification of the adenosine-di-phosphate (ADP), which is generated as a co-product of the enzyme reaction, via the “ADP-Glo™ Kinase Assay” kit from the company Promega. This detection system works as follows: In a first step the ATP not consumed in the kinase reaction is quantitatively converted to cAMP employing an adenylate cyclase (“ADP-Glo-reagent”), then the adenylate cyclase is stopped and the ADP generated in the kinase reaction converted to ATP which generates in a luciferase-based reaction a glow-luminescence signal (“Kinase Detection Reagent”).
Recombinant fusion protein of N-terminal Glutathion-S-Transferase (GST) and full-length human CSNK1D, expressed by baculovirus infected insect cells and purified via Glutathion affinity chromatography, was purchased from Life Technologies (product no. PV3665) and used as enzyme. As substrate for the kinase reaction the biotinylated peptide Btn-Ahx-[…] (C-terminus in amide form) was used which can be purchased e.g. from the company Biosyntan (Berlin-Buch, Germany).
For the assay 50 nl of a 100 fold concentrated solution of the test compound in DMSO was pipetted into a white 1536-well microtiter plate (Greiner Bio-One, Frickenhausen, Germany), 2 μL of a solution of CSNK1D in aqueous assay buffer [50 mM HEPES pH 7.5, 10% (v/v) glycerol, 10 mM MgCl2, 50 mM NaCl, 1 mM dithiothreitol, 0.01% (w/v) bovine serum albumin, 0.01% (v/v) Triton X-100] were added and the mixture was incubated for 15 min at 22° C. to allow pre-binding of the test compounds to the enzyme before the start of the kinase reaction. […] The concentration of CSNK1D was adjusted depending of the activity of the enzyme lot and was chosen appropriate to have the assay in the linear range, a typical concentration is about 0.5 ng/μL. The reaction was stopped by the addition of 2.5 μL of “ADP-Glo-reagent” (1:1.5 fold diluted with water) and the resulting mixture was incubated at 22° C. for 1 h to convert the ATP not consumed in the kinase reaction completely […]. Subsequently 2.5 μL of the “kinase detection reagent” (1.2 fold more concentrated than recommended by the producer) were added, the resulting mixture was incubated at 22° C. for 1 h and then the luminescence measured with a suitable measurement instrument (e.g. Viewlux™ from Perkin-Elmer). The amount of emitted light was taken as a measure for the amount of ADP generated and thereby for the activity of the CSNK1D.

For experiment [1], the target named is T2, full-length human CSNK1A1 (Homo sapiens, UniProt P48729).
T2 construct: N-terminal Glutathion-S-Transferase (GST) and full-length human CSNK1A1; purchased Life Technologies PV4174; host or cells: baculovirus infected insect cells
Put plainly: CSNK1A1 High ATP Assay (ADP-Glo, 1 mM ATP).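 Note: 30 min kinase reaction at 22 °C with 100 µM peptide substrate.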 The conditions noted are these: Table 3, read-out: CSNK1A1 high ATP assay IC50 [mol/l] (median). Type of experiment: biochemical. The procedure, abridged: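 Kinase activity taken as ADP generated, quantified by ADP-Glo luminescence after 1 h ATP depletion and 1 h detection at 22 °C. Enzyme is GST–full-length human CSNK1A1 (insect cell-expressed), pre-bound to compound for 15 min, with phosphopeptide substrate and 1 mM ATP.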

T1 sequence (P48730 whole entry): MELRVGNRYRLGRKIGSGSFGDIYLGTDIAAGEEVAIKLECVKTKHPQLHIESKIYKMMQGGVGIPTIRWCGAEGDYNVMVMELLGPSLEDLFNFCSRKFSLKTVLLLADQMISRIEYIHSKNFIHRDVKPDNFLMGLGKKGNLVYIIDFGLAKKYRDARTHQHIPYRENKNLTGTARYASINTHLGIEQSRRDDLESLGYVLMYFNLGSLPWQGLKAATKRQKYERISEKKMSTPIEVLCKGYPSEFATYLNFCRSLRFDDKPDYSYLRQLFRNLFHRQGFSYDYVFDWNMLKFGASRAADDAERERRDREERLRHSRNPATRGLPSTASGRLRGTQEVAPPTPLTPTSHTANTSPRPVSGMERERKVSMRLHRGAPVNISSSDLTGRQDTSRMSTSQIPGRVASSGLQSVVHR
T2 sequence (P48729 whole entry): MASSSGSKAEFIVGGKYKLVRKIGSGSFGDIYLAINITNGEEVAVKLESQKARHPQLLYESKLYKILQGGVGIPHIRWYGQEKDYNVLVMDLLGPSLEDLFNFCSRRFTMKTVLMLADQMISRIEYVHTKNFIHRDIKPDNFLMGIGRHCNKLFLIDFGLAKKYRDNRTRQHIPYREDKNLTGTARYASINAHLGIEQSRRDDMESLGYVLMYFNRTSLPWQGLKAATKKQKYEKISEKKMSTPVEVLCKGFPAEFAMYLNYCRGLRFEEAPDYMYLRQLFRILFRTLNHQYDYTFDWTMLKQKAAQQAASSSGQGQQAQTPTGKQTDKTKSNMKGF

Consider `O=C(Nc1cc(-c2[nH]c3cc(F)cnc3c2-c2ccccn2)ccn1)C(CC(F)F)c1ccc(F)cc1` (racemic) [Example 16, 4,4-difluoro-2-(4-fluorophenyl)-N-{4-[6-fluoro-3-(pyridin-2-yl)-1H-pyrrolo[3,2-b]pyridin-2-yl]pyridin-2-yl}butanamide], for which the IC50 on full-length human CSNK1D turned out to be 4.57 nM; in experiment [1] it was 21.9 nM.
For `O=C(Nc1cc(-c2[nH]c3c(OCC(F)(F)F)ncnc3c2-c2ccccn2)ccn1)C(CC(F)(F)F)c1ccc(F)cc1` (racemic) [Example 125, (2RS)-4,4,4-trifluoro-2-(4-fluorophenyl)-N-{4-[7-(pyridin-2-yl)-4-(2,2,2-trifluoroethoxy)-5H-pyrrolo[3,2-d]pyrimidin-6-yl]pyridin-2-yl}butanamide], in that order: 14.2 nM and 46.1 nM.
As to `O=C(Nc1cc(-c2[nH]c3ccc(F)nc3c2-c2cc(F)ccn2)ccn1)C(CC(F)F)c1ccc(F)cc1` (single isomer, unassigned) [Example 96, (2R or S)-4,4-difluoro-N-{4-[5-fluoro-3-(4-fluoropyridin-2-yl)-1H-pyrrolo[3,2-b]pyridin-2-yl]pyridin-2-yl}-2-(4-fluorophenyl)butanamide], the IC50 came out at 10.4 nM at full-length human CSNK1D and 4.67 nM in experiment [1].
For `O=C(Nc1cc(-c2[nH]c3c(OCC(F)F)cc(F)nc3c2-c2ccccn2)ccn1)C(CC(F)F)c1ccc(F)cc1` (single isomer, unassigned) [Example 30, (2R or S)—N-{4-[7-(2,2-difluoroethoxy)-5-fluoro-3-(pyridin-2-yl)-1H-pyrrolo[3,2-b]pyridin-2-yl]pyridin-2-yl}-4,4-difluoro-2-(4-fluorophenyl)butanamide], the IC50 at full-length human CSNK1D was 14.7 nM; in experiment [1], 8.84 nM.
For `O=C(Nc1cc(-c2[nH]c3cccnc3c2-c2ccccc2)ccn1)C(CC(F)F)c1ccc(F)cc1` (racemic) [Example 22, 4,4-difluoro-2-(4-fluorophenyl)-N-[4-(3-phenyl-1H-pyrrolo[3,2-b]pyridin-2-yl)pyridin-2-yl]butanamide], in that order: 3.18 nM and 90.4 nM.
The matching figures for `O=C(Nc1cc(-c2[nH]c3c(C4CCCO4)cc(F)nc3c2-c2ccccn2)ccn1)C(CC(F)F)c1ccc(F)cc1` (single isomer, unassigned) [Example 117, (2R or S)-4,4-difluoro-N-(4-{5-fluoro-7-[(2R or S)-oxolan-2-yl]-3-(pyridin-2-yl)-1H-pyrrolo[3,2-b]pyridin-2-yl}pyridin-2-yl)-2-(4-fluorophenyl)butanamide]: 28 nM and 3570 nM.
For the compound `O=C(Nc1cc(-c2[nH]c3cncnc3c2-c2ccccn2)ccn1)C(CC(F)F)c1ccc(F)cc1` (single isomer, unassigned; (+)) [Example 15, (+)-4,4-difluoro-2-(4-fluorophenyl)-N-{4-[7-(pyridin-2-yl)-5H-pyrrolo[3,2-d]pyrimidin-6-yl]pyridin-2-yl}butanamide], the figures for the IC50 (on full-length human CSNK1D; in experiment [1]) were 3.06 nM and 30.9 nM, respectively.
Regarding `O=C(Nc1cc(-c2[nH]c3c(OCC(F)(F)F)ncnc3c2-c2ccccn2)ccn1)C(CC(F)(F)F)c1ccc(F)cc1` (single isomer, unassigned) [Example 126, (2R or S)-4,4,4-trifluoro-2-(4-fluorophenyl)-N-{4-[7-(pyridin-2-yl)-4-(2,2,2-trifluoroethoxy)-5H-pyrrolo[3,2-d]pyrimidin-6-yl]pyridin-2-yl}butanamide], the results for the IC50 (on full-length human CSNK1D; in experiment [1]) were 7.84 nM and 20 nM, respectively.
For `O=C(Nc1cc(-c2[nH]c3nc(OC(F)F)cnc3c2-c2ccccn2)ccn1)C(CC(F)F)c1ccc(F)cc1` (centres unmarked) [Example 105, N-{4-[3-(difluoromethoxy)-7-(pyridin-2-yl)-5H-pyrrolo[2,3-b]pyrazin-6-yl]pyridin-2-yl}-4,4-difluoro-2-(4-fluorophenyl)butanamide], in that order: 12.3 nM and 10.9 nM.
For `Cc1cc(F)nc2c(-c3ccccn3)c(-c3ccnc(NC(=O)C(CC(F)F)c4ccc(F)cc4)c3)[nH]c12` (single isomer, unassigned; (-)) [Example 38, (−)-4,4-difluoro-N-{4-[5-fluoro-7-methyl-3-(pyridin-2-yl)-1H-pyrrolo[3,2-b]pyridin-2-yl]pyridin-2-yl}-2-(4-fluorophenyl)butanamide], in that order: 3.8 nM and 2.26 nM.
For `Cc1cc(F)nc2c(-c3ccccn3)c(-c3ccnc(NC(=O)C(CC(F)F)c4ccc(F)cc4)c3)[nH]c12` (racemic) [Example 36, (rac)-4,4-difluoro-N-{4-[5-fluoro-7-methyl-3-(pyridin-2-yl)-1H-pyrrolo[3,2-b]pyridin-2-yl]pyridin-2-yl}-2-(4-fluorophenyl)butanamide], in that order: 41.9 nM and 21.4 nM.
As to `O=C(Nc1cc(-c2[nH]c3cncnc3c2-c2ccccn2)ccn1)C(CC(F)F)c1ccc(F)cc1` (racemic) [Example 13, 4,4-difluoro-2-(4-fluorophenyl)-N-{4-[7-(pyridin-2-yl)-5H-pyrrolo[3,2-d]pyrimidin-6-yl]pyridin-2-yl}butanamide], the IC50 is 12.3 nM at full-length human CSNK1D and 240 nM in experiment [1].
For `O=C(Nc1cc(-c2[nH]c3c(OCC(F)F)cc(F)nc3c2-c2ccccn2)ccn1)C(CC(F)F)c1ccc(F)cc1` (racemic) [Example 28, (2RS)—N-{4-[7-(2,2-difluoroethoxy)-5-fluoro-3-(pyridin-2-yl)-1H-pyrrolo[3,2-b]pyridin-2-yl]pyridin-2-yl}-4,4-difluoro-2-(4-fluorophenyl)butanamide], in that order: 4 nM and 3.95 nM.
`O=C(Nc1cc(-c2[nH]c3cccnc3c2-c2ccccc2)ccn1)C(CC(F)F)c1ccc(F)cc1` (single isomer, unassigned; (-)) [Example 23, (−)-4,4-difluoro-2-(4-fluorophenyl)-N-[4-(3-phenyl-1H-pyrrolo[3,2-b]pyridin-2-yl)pyridin-2-yl]butanamide]: the values for the IC50 (on full-length human CSNK1D; in experiment [1]) were 12.5 nM and 3740 nM, respectively.
With `O=C(Nc1cc(-c2[nH]c3cccnc3c2-c2cccc(F)n2)ccn1)C(CC(F)F)c1ccc(F)cc1` (single isomer, unassigned; (+)) [Example 27, (+)-4,4-difluoro-2-(4-fluorophenyl)-N-{4-[3-(6-fluoropyridin-2-yl)-1H-pyrrolo[3,2-b]pyridin-2-yl]pyridin-2-yl}butanamide], the IC50 at full-length human CSNK1D worked out at 4.05 nM; in experiment [1], 1.55 nM.
For `O=C(Nc1cc(-c2[nH]c3cccnc3c2-c2ccccc2)ccn1)C(CC(F)F)c1ccc(F)cc1` (single isomer, unassigned; (+)) [Example 24, (+)-4,4-difluoro-2-(4-fluorophenyl)-N-[4-(3-phenyl-1H-pyrrolo[3,2-b]pyridin-2-yl)pyridin-2-yl]butanamide], in that order: 2.48 nM and 66.6 nM.
As for `Cc1ccc2[nH]c(-c3ccnc(NC(=O)C(CC(F)F)c4ccc(F)cc4)c3)c(-c3ccccn3)c2n1` (racemic) [Example 4, 4,4-difluoro-2-(4-fluorophenyl)-N-{4-[5-methyl-3-(pyridin-2-yl)-1H-pyrrolo[3,2-b]pyridin-2-yl]pyridin-2-yl}butanamide], the IC50 was 9.45 nM on full-length human CSNK1D and 158 nM in experiment [1].
For `O=C(Nc1cc(-c2[nH]c3c(C4CCCO4)cc(F)nc3c2-c2ccccn2)ccn1)C(CC(F)F)c1ccc(F)cc1` (single isomer, unassigned) [Example 118, (2R or S)-4,4-difluoro-N-(4-{5-fluoro-7-[(2R or S)-oxolan-2-yl]-3-(pyridin-2-yl)-1H-pyrrolo[3,2-b]pyridin-2-yl}pyridin-2-yl)-2-(4-fluorophenyl)butanamide], in that order: 125 nM and 6660 nM.
Turning to `O=C(Nc1cc(-c2[nH]c3c(OC4CC4)cc(F)nc3c2-c2ccccn2)ccn1)C(CC(F)F)c1ccc(F)cc1` (centres unmarked) [Example 45], the IC50 at full-length human CSNK1D was 40.4 nM; in experiment [1], 22.3 nM.
